This is an account of results in patent publication US6953783B1, “Modulation of gene expression by combination therapy” (MethylGene, Inc., priority 1998, dated 2005).

Broadly, the IC50 is the concentration needed to halve the response being measured. A low value points to greater potency in that assay.

One data set concerns thymidylate synthase. As to conditions: T24 cells; 25 or 50 nM, 72 hours.
Data set [1] concerns DNA MeTase protein. The experiment in a line: DNA MeTase protein levels by Western blotting in A549 cells. The conditions noted are these: 20, 40 or 80 nM with lipofectin, 4 h on day 0 and day 1, harvest day 2. The class given is cell-based, human. The source says:
(§1) MG88 was next tested for an ability to inhibit DNA MeTase mRNA in two human neoplastic cells, A549 (human non-small cell lung carcinoma cells) and T24 (human bladder cancer cells). […] MG208 was modified as follows: A equals 2′-deoxyriboadenosine; C equals 2′-deoxyribocytidine; G equals 2′-deoxyriboguanosine; T equals 2′-deoxyribothymidine; A equals riboadenosine; U equals uridine; C equals ribocytidine; and G equals riboguanosine. The underlined bases were 2′-methoxyribose substituted nucleotides. Non-underlined bases indicate deoxyribose nucleosides. The backbone of MG208 consisted of a phosphorothioate linkage between adjoining nucleotides.
The MG88 and MG208 oligonucleotides were diluted to the desired concentration from a 0.1 mM stock solution in the transfection media. Cells were exposed to oligonucleotide plus lipofectin (or lipofectin only) for four hours on day 0 and four hours on day 1 (after each four hour treatment, cells were returned to complete media). On day 2 (i.e., 48 hours after the first treatment on day 0), cells were harvested, whole cell lysates were prepared, and DNA MeTase protein levels were analyzed by Western blotting analysis with a DNA MeTase-specific rabbit polyclonal antibody (generated according to standard techniques of a glutathione S -transferase fusion protein containing the first 10 kDa amino terminus from DNA methyltransferase protein). […]
Background: A western blot detects proteins with antibodies after separation by electrophoresis.

Data set [2] concerns DNA MeTase protein. The experiment in a line: DNA MeTase protein levels by Western blotting in T24 cells. As to conditions: 20, 40 or 80 nM with lipofectin, 4 h on day 0 and day 1, harvest day 2. The class given is cell-based, human.
From the text: as §1
The MG88 and MG208 oligonucleotides were diluted to the desired concentration from a 0.1 mM stock solution in the transfection media. Cells were exposed to oligonucleotide plus lipofectin (or lipofectin only) for four hours on day 0 and four hours on day 1 (after each four hour treatment, cells were returned to complete media). On day 2 (i.e., 48 hours after the first treatment on day 0), cells were harvested, whole cell lysates were prepared, and DNA MeTase protein levels were analyzed by Western blotting analysis with a DNA MeTase-specific rabbit polyclonal antibody (generated according to standard techniques of a glutathione S -transferase fusion protein containing the first 10 kDa amino terminus from DNA methyltransferase protein). […] Equal loading of all lanes was confirmed by blotting for α-actin protein levels with an actin-specific rabbit polyclonal antibody (commercially available from Santa Cruz Biotech., Santa Cruz, Calif.).
(§2) Next, to determine whether de novo methylation and silencing of the re-expressed p16^ink4A gene occurred when DNA MeTase returned to normal levels, T24 cells were transfected for 10 consecutive days with either 40 or 75 nM or MG88 or MG208. […] Cell lysates of the T24 cells transfected for ten days were analyzed by Western blotting analysis for expression of DNA MeTase protein,p16^ink4A protein, and actin protein (as a control for equal loading) 3, 5, and 7 days after MG88 transfection.

The test system of a further data set is p21^WAF1. The experiment in a line: p21^WAF1 protein levels by Western blotting in T24 cells. The class given is cell-based, human. As to conditions: 40 nM or 75 nM, 24 or 48 hours. Here is the method:
Another member of the cyclin-dependent kinase inhibitor (CDKI) family, p21^WAF1, inhibits a wide range of cyclin/CDK complexes involved in G1 and S phase progression (Tam et al. (1994) Cancer Res. 54: 5816-5820; Baghdassarian and French (1996) Hematol. Cell Ther. 88: 313-323; Gotz et al. (1996) Oncogene 13: 391-398). […] To do this, DNA MeTase, p21^WAF1, and α-actin protein levels were measured by Western blotting analysis in T24 cells that had been treated for either 24 hours (i.e., one 4 hour transfection time) or 48 hours (i.e., two […] transfections 24 hours apart) with either 40 nM or 75 nM of either MG88 or MG208.
T24 cells were also treated for 24 hours (i.e., four hour transfection) with lipofectin only, or lipofectin plus 20, 40, or 80 nM of MG88 or MG208. After treatment, cell lysates were prepared and analyzed by Western blotting analysis with α-actin-specific antibody or p21-specific antibody.

Another data set has as its system p16^ink4A promoter. Briefly: Methylation specific PCR and bisulfite genomic sequencing of the p16^ink4A promoter in T24 cells. Type of data set: cell-based, human. The conditions noted are these: T24 cells. The procedure: To identify changes in the methylation status of the p16^ink4A promoter induced by MG88 treatment, methylation specific PCR (MSP) and bisulfite genomic sequencing was performed as previously described ([…] et al. (1994) Nat. Gen. 8: 27-32; Frommer et al. (1991) Proc. Nat. Acad. Sci. USA 89: […]). […] Briefly, the Oncor p16 detection system was used (commercially available from Oncor, Gaithersburg, Md.). PCR was performed in a total volume of 25 μl under the following conditions: 100 ng bisulfate-treated DNA (Oncor),10 mM Tris-HCl, pH 8.3, […], 1.5 mM MgCl2, 250 μM dNTPs, 80 ng of each of the following primers ([NT] sense (SEQ ID NO: 79) and [NT] antisense (SEQ ID NO: 80)) and 1 unit of AmpliTaq Gold (Perkin-Elmer). The denaturation cycle was 95° C. for 12 min followed by 35 cycles at 95° C. for 45 seconds, 60° C. for 45 seconds, and 72° C. for 60 seconds, and an elongation cycle of 72° C. for 10 minutes. the PCR product (5 μl) was analyzed on a 2% agarose gel. The unmethylated (U) and demethylated (D) primers (commercially available from Oncor) were used at the same conditions as the specific primers.

In the next data set the test system is T24 cells. The experiment in a line: T24 cell proliferation during and after treatment (cell counting). Type of data set: cell-based, human. The conditions noted are these: 75 nM, days 0-5, relative to lipofectin. The source says: To study the effect of specific inhibition of DNA MeTase on cell growth, cellular proliferation rates were monitored both during the treatment and post treatment periods to determine the duration of the effect. […] During and following treatment, cells were counted. […] To determine whether the transient re-expression of p16^ink4A and growth-inhibitory effects induced by short term treatment with MG88 were due to the expansion of a less affected (less demethylated) population of cells within the treated population, or to rapid inactivation of p16^ink4A after MG88 withdrawal, single cell clones were isolated after treatment. Several MG88 clones were, in fact, p16^ink4A negative, confirming that the MG88 treatment produced a mixed population of p16^ink4A positive and negative cells.

The next data set has as its system p16^ink4A protein. The experiment in a line: p16^ink4A protein by immunoprecipitation and Western blotting in T24 cells. The class given is cell-based, human. The conditions noted are these: 40 nM or 75 nM, 4 h each day up to 10 days.
From the text: The cyclin-dependent kinase inhibitor (CDKI) p16^ink4A regulates the transition from G1 to S-phases of the cell cycle (Serrano et al. (1993) Nature 366: 704-707). Inactivation of p16^ink4A is one of the most frequently observed abnormalities in human cancer (Serrano et al., supra). Transcriptional inactivation and associated hypermethylation of the p16^ink4A promote region have also been observed in virtually all types of cancer (Gonzales-Zulueta et al. (1995) Cancer Res. 55: 4531-4535; Merlo et al. (1995) Nat. Med. 7: 686-692; Costello et al. (1996) Cancer Res. 56: 2405-2410; Lo et al., Cancer Res. 56: 2721-2725). To investigate the effect of specifically reducing cellular DNA MeTase levels on the expression and methylation status of a silenced p16^ink4A gene, T24 human bladder cancer cells that contain a hypermethylated and silenced p16^ink4A gene were transfected with 40 nM or 75 nM MG88 or control oligonucleotide MG208 with 6.25 μg/ml lipofectin for four hours each day for up to 10 consecutive days. On days 3, 5, 8, and 10, p16^ink4A protein levels were then analyzed by immunoprecipitation followed by Western blotting analysis with a p16^ink4A protein-specific antibody (PharMingen). HeLa cells were used as a positive (+) control for p16^ink4A protein expression.
as §2

Another data set concerns p16 tumor suppressor. The experiment in a line: Reactivation of p16 expression in T24 cells, oligonucleotide and/or 5-aza-dC (IP/Western, densitometry). Type of data set: cell-based, human. The conditions noted are these: densitometry of FIG. 14 Western, 40 nM oligonucleotide and/or 0.1 μM 5-aza-dC.
In data set [3] the test system is Colo 205 human colon cancer cells. The experiment in a line: Colo 205 tumor growth in nude mice. The class given is in vivo, BALB/c nude mice. The conditions noted are these: i.v. daily for seven days; 0.5 mg/kg MG98 and/or 0.1 mg/kg 5-aza-dC.
Protocol: Eight to ten week old female BALB/c nude mice (Taconic Labs, Great Barrington, N.Y.) were injected subcutaneously in the flank area with 2×10^6 preconditioned Colo 205 human colon cancer cells (ATCC No. CCL-222). Preconditioning of these cells was done by a minimum of three consecutive tumor transplantations in the same strain of nude mice. Subsequently, tumor fragments of approximately 30 mgs were excised and implanted subcutaneously in mice, in the left flank area under Forene anesthesia (Abbott Labs., Geneva, Switzerland). […] Tumor volume was calculated according to standard methods every second day post infusion (see methods, e.g., in Meyer et al. (1989) Int. J. Cancer 43: 851-856).
The target of another data set is human DNA MeTase mRNA. Briefly: Antisense inhibition of DNA MeTase mRNA (screen of phosphorothioate oligonucleotides). The class given is cell-based. The source says:
As shown in FIG. 1 the two […] regions were identified to be highly sensitive to antisense inhibition were targeted by MG88 having the sequence [NT] ID NO:1) (this oligonucleotide is targeted to the […] 5'UTR at nucleotides 532 to 513) and MG98 having the sequence [NT] ID NO:2) (this oligonucleotide is targeted to the […] 3'UTR at nucleotides 5218 to 5199). These oligonucleotides were chemically modified as follows: A equals 2'-deoxyriboadenosine; C equals 2'-deoxyribocytidine; G equals 2'-deoxyriboguanosine; T equals 2'-deoxyribothymidine; A equals riboadenosine; U equals uridine; C equals ribocytidine; and G equals riboguanosine. The underlined bases were 2'-methoxyribose substituted nucleotides. Non-underlined bases indicate deoxyribose nucleosides. The backbone of each oligonucleotide consisted of a phosphorothioate linkage between adjoining nucleotides.

For data set [4] the following is noted: mammals; cited from earlier work.

d = 2'-deoxy (DNA); m = 2'-O-methyl

Protocol for p16 tumor suppressor: For this purpose, one day before transfection, T24 cells (ATCC No. HTB-4) were plated onto 10 cm plates at 4×10^5 cells/dish. At the time of transfection, cells were washed with phosphate buffered saline (PBS) and 5 ml of optimem media (Gibco-BRL) containing 6.25 μl/ml lipofectin transfection reagent (Gibco-BRL) was added. […] These oligonucleotides were chemically modified as follows: A equals 2'-deoxyriboadenosine; C equals 2'-deoxyribocytidine; G equals 2'-deoxyriboguanosine; T equals 2'-deoxyribothymidine; Aequals riboadenosine; U equals uridine; C equals ribocytidine; and G equals riboguanosine. The underlined bases were 2'-methoxyribose substituted nucleotides. Non-underlined bases indicate deoxyribose nucleosides. The backbone of each oligonucleotide consisted of a phosphorothioate linkage between adjoining nucleotides. The oligonucleotides were diluted to the desired concentration from a 0.1 mM stock solution in the transfection media. After a four-hour incubation at 37° C. in a 5% CO2 incubator, the plates were washed with PBS and 10 ml of fresh cell culture media was added. Following an additional two-hour incubation at 37° C., freshly prepared 5-aza-2'-deoxycytidine was added to the tissue culture medium. Cells were transfected for a total of three days and split every other day to ensure optimal transfection conditions. At the indicated time points, cells were harvested by trypsinization and pelleted by centrifugation at 1100 rpm and 4° C. for five minutes. The cell pellet was resuspended in PBS and counted on a Coulter Particle Counter to determine the total cell number. Following a second centrifugation, the PBS was aspirated from the cell pellet and the pellet was frozen at 70° C. […] The lysed cells were incubated on ice for 10 minutes and cell particulate matter was removed by centrifugation at 10,000 rpm for 10 minutes at 4° C. The protein concentration for each sample was determined using the Bio Rad Protein Assay and 600 μg of protein was used for each immunoprecipitation. […]
From the text for thymidylate synthase: After treatment, the cells were lysed and analyzed by Western blotting analysis for thymidylate synthase protein levels using a thymidylase synthase specific antibody (commercially available from Chemicon Int., Temecula, Calif.).

“5′ GUCUTAAGCTCAACATUCUA 3′ [MG2606, reference compound]”: the “thymidylate synthase protein level compared to lipofectin only” value in the data set on thymidylate synthase is listed as “not”.

“5′ UUCATAACCTCAGCATUGUC 3′ [MG2605]”: the “thymidylate synthase protein level compared to lipofectin only” value in the data set with thymidylate synthase is “diminished levels of thymidylate synthase protein”.

As to “5′-AACGAT CAG GAC CCT TGUCC-3′ (DNA AACGATCAGGACCCTTGUCC; sugars from the 5' end m4 d12 m4, all phosphorothioate, methylation of C not given here) [MG208, mismatch control oligonucleotide, reference compound]”, the “reduction in DNA MeTase protein levels” value in the data set with DNA MeTase protein [1] and in the data set with DNA MeTase protein [2] was “not” in each case. Moreover, the “p21^WAF1 protein level” value with p21^WAF1 was “neither lipofectin nor MG208 had an effect”. Further, in the data set on p16^ink4A promoter (days 3 and 5 of treatment), the “p16^ink4A methylation status (bisulfite sequencing)” value is on record as “no effect on p16^ink4A methylation status”. In the data set with p16^ink4A promoter (treated 3, 5, 9 or 10 days), the “demethylation of the p16^ink4A promoter region (MSP)” value is given as “no effect on methylation of the p16^ink4A gene”. The “cell proliferation during treatment” value in the data set with T24 cells is given as “only minimal growth inhibition”. Besides, the “induction of expression of p16^ink4A protein” value in the data set with p16^ink4A protein is reported as “not detected”.

“5′-UUAATG TAA CCT AAG GUCAA-3′ (DNA UUAATGTAACCTAAGGUCAA; sugars from the 5' end m4 d12 m4, all phosphorothioate, methylation of C not given here) [MG207, negative control oligonucleotide]”: in the data set with p16 tumor suppressor, the “p16 expression, Percentage of HeLa Cell Control” value (“p16 expression, Percentage” below) was found to be 1.

Regarding 5′-UUCATG TCA GCC AAG GCC AC-3′ [MG98], the tumor volume entry in [3] was “showed tumor volume increase”. For the same compound, half-maximal inhibition at human DNA MeTase mRNA (IC50) required 45 nM. Besides, in the data set on p16 tumor suppressor, the “p16 expression, Percentage” value is 4.

Take `Nc1ncn([C@H]2C[C@H](O)[C@@H](CO)O2)c(=O)n1` [5-aza-dC, 5-aza-2′-deoxycytidine]: the tumor volume entry in data set [3] was “showed less tumor volume increase”. Besides, the “toxicity of threshold concentrations necessary to inhibit DNA methyltransferase activity” value in [4] is “toxic to mammals”. Besides, in the data set with p16 tumor suppressor, the “p16 expression, Percentage” value is recorded as 11.

As to `Nc1ncn([C@@H]2O[C@H](CO)[C@@H](O)[C@H]2O)c(=O)n1` [5-azaC, 5-aza-cytidine], the “toxicity of threshold concentrations necessary to inhibit DNA methyltransferase activity” value in [4] was “toxic to mammals”.
